Measurements reported in ChEMBL document CHEMBL4196083, “Discovery of meta-sulfamoyl N-hydroxybenzamides as HDAC8 selective inhibitors” (Eur J Med Chem, 2018).

Tests used:
[1] = target: Histone deacetylase (HDAC1 and HDAC2) (Homo sapiens, UniProt Q13547+Q92769); test: Inhibition of HDAC1/2 in human HeLa nuclear extract using Boc-Lys(acetyl)-AMC as substrate preincubated for 5 mins followed by substrate addition measured after 30 mins by fluorescence assay; assay type: ADME, protein assay
Histone deacetylase 2 = Histone deacetylase 2 (Homo sapiens, UniProt Q92769); test: Inhibition of HDAC2 (unknown origin) using Boc-Lys(acetyl)-AMC as substrate preincubated for 5 mins followed by substrate addition measured after 30 mins by fluorescence assay; assay type: ADME
[2] = target: T1, Protein deacetylase HDAC6 (Homo sapiens, UniProt Q9UBN7); test: Inhibition of HDAC6 (unknown origin) using Boc-Lys(acetyl)-AMC as substrate preincubated for 5 mins followed by substrate addition measured after 30 mins by fluorescence assay
T1 sequence (Q9UBN7 whole entry): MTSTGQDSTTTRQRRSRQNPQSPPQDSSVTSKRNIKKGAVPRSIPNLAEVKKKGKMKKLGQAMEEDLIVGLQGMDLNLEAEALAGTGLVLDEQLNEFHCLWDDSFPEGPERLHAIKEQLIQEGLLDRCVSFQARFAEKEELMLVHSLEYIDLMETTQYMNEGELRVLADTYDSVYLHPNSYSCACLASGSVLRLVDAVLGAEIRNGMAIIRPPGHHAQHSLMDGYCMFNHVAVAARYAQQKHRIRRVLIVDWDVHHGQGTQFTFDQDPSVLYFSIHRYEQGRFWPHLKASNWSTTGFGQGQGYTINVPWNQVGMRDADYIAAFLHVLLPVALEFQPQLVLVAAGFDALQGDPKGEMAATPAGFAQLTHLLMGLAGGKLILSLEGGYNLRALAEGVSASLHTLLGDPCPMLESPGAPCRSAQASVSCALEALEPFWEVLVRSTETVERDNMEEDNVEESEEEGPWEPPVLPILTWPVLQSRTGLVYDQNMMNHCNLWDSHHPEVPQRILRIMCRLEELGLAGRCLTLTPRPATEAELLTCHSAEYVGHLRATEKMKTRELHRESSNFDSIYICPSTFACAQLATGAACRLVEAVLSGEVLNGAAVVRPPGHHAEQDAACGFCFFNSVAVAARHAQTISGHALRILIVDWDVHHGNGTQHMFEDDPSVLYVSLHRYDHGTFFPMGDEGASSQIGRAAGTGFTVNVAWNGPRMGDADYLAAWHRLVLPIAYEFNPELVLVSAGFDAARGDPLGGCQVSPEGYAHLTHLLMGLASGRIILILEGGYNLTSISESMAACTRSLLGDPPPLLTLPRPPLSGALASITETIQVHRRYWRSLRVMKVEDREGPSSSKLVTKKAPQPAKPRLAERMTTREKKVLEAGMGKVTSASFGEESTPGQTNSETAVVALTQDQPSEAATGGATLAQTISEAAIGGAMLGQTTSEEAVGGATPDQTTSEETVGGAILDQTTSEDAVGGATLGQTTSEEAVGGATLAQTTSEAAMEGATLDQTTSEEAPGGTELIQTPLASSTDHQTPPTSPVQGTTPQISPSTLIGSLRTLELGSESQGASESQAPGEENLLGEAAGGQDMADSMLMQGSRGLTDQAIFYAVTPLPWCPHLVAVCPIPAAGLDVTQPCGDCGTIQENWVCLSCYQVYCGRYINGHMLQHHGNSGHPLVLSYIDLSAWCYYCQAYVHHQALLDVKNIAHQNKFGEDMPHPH

Histone deacetylase 8 = target: T2, Histone deacetylase 8 (Homo sapiens, UniProt Q9BY41); test: Inhibition of HDAC8 (unknown origin) using Boc-Lys(trifluoroacetyl)-AMC as substrate preincubated for 5 mins followed by substrate addition measured after 30 mins by fluorescence assay
T2 sequence (Q9BY41 whole entry): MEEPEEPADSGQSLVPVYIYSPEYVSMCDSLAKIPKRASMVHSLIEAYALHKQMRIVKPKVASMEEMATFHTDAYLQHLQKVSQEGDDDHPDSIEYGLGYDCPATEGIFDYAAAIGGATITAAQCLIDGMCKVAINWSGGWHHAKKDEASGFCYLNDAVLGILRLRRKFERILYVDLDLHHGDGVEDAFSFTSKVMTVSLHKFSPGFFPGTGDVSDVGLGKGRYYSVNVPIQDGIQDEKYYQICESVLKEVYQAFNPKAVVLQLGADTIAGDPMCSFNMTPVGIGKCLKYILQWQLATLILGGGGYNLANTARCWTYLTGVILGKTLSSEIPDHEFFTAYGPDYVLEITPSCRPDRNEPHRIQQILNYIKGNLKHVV

Jurkat = test: Antiproliferative activity against human Jurkat cells after 48 hrs by MTT assay; assay type: functional, cell-based
MOLT-4 = test: Antiproliferative activity against human MOLT4 cells after 48 hrs by MTT assay; assay type: functional, cell-based; details: MOLT-4, 48 h
[3] = Antiproliferative activity against human SK-N-BE(2) cells after 48 hrs by MTT assay; assay type: functional, cell-based; details: SKNBE2, 48 h
PC-3 = test: Antiproliferative activity against human PC3 cells after 48 hrs by MTT assay; assay type: functional, cell-based; details: PC-3, 48 h
HeLa = test: Antiproliferative activity against human HeLa cells after 48 hrs by MTT assay; assay type: functional, cell-based
K562 = test: Antiproliferative activity against human K562 cells after 48 hrs by MTT assay; assay type: functional, cell-based; details: K562, 48 h
HEL = test: Antiproliferative activity against human HEL cells after 48 hrs by MTT assay; assay type: functional, cell-based
Homo sapiens [4] = organism: Homo sapiens; test: Selectivity ratio of IC50 for HDAC2 (unknown origin) to IC50 for HDAC8 (unknown origin)
Homo sapiens [5] = organism: Homo sapiens; test: Selectivity ratio of IC50 for HDAC6 (unknown origin) to IC50 for HDAC8 (unknown origin)
[6] = target: T1, Protein deacetylase HDAC6; test: Inhibition of HDAC6 in human HeLa cells assessed as increase in acetyl-tubulin level at 2 uM after 12 hrs by Western blot analysis; assay type: cell-based
[7] = target: Histone deacetylase 1/2/3 (Homo sapiens, UniProt Q13547+O15379+Q92769); test: Inhibition of HDAC1/2/3 in human HeLa cells assessed as increase in acetyl-histone H4 level at 2 uM after 12 hrs by Western blot analysis

Sequence of Histone deacetylase 2 (Q92769 whole entry): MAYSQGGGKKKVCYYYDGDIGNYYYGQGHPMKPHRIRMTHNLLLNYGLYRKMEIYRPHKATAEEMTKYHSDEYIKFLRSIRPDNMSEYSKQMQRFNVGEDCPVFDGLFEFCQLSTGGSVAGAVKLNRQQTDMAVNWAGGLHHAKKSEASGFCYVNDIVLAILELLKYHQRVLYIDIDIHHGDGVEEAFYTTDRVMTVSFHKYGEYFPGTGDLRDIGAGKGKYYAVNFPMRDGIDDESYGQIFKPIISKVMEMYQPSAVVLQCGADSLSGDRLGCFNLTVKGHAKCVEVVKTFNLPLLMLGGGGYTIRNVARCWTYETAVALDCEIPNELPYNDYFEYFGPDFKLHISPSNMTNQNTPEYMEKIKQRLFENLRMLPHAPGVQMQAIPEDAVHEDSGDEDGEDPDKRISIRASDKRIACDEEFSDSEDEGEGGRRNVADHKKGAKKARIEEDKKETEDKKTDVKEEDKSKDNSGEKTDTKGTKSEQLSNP

Row | Structure (SMILES) | IC50 [1] [µM] | IC50 (Histone deacetylase 2) [µM] | IC50 [2] [µM] | IC50 (Histone deacetylase 8) [µM] | also measured
1 | O=C(NO)c1cccc(S(=O)(=O)N[C@H](C(=O)Nc2ccccc2)c2ccccc2)c1 | > 20 | > 100 | 6.7 | 0.91 | –
2 | C[C@H](NS(=O)(=O)c1cccc(C(=O)NO)c1)C(=O)Nc1ccccc1 | > 20 | > 100 | 27.7 | 24.2 | –
3 | O=C(NO)c1cccc(S(=O)(=O)N[C@H](C(=O)Nc2ccc(F)cc2)c2ccccc2)c1 | > 20 | – | – | – | –
4 | O=C(CNS(=O)(=O)c1cccc(C(=O)NO)c1)Nc1ccccc1 | > 20 | > 100 | 14.1 | 3.5 | –
5 | O=C(NO)c1cccc(S(=O)(=O)NCCc2ccccc2)c1 | > 20 | 11.2 | 1.8 | 0.06 | IC50 (Jurkat): 7.9 µM; IC50 (MOLT-4): 6.2 µM; IC50 [3]: 25.5 µM; IC50 (PC-3): > 50 µM; IC50 (HeLa): > 50 µM; IC50 (K562): > 50 µM; IC50 (HEL): 32.8 µM; Ratio IC50 (Homo sapiens [4]): > 180; Ratio IC50 (Homo sapiens [5]): 30; inhibition (INH) [6]: Not Active; INH [7]: Not Active
6 | O=C(NO)c1cccc(S(=O)(=O)N[C@H](C(=O)NCc2ccccc2)c2ccccc2)c1 | > 20 | > 100 | 34 | 9.2 | –
7 | O=C(NO)c1cccc(S(=O)(=O)N[C@@H](Cc2c[nH]c3ccccc23)C(=O)Nc2ccccc2)c1 | > 20 | 70.4 | 5.9 | 3 | –
8 | O=C(NO)c1cccc(S(=O)(=O)NCc2ccccc2)c1 | > 20 | 47.1 | 2.6 | 0.08 | IC50 (Jurkat): 12.2 µM; IC50 (MOLT-4): 11.1 µM; IC50 [3]: 36.2 µM; IC50 (PC-3): > 50 µM; IC50 (HeLa): > 50 µM; IC50 (K562): > 50 µM; IC50 (HEL): > 50 µM; Ratio IC50 (Homo sapiens [4]): > 180; Ratio IC50 (Homo sapiens [5]): 30; inhibition (INH) [6]: Not Active; INH [7]: Not Active
9 | COc1ccc(NC(=O)[C@H](Cc2c[nH]c3ccccc23)NS(=O)(=O)c2cccc(C(=O)NO)c2)cc1 | > 20 | – | – | – | –
10 | O=C(CCCCCCC(=O)Nc1ccccc1)NO [VORINOSTAT] | – | – | – | – | inhibition (INH) [6]: Active
11 | O=C(NO)c1cccc(S(=O)(=O)N[C@H](C(=O)Nc2ccc(Cl)cc2)c2ccccc2)c1 | > 20 | – | – | – | –
12 | O=C(NO)c1cccc(S(=O)(=O)N[C@@H](Cc2c[nH]c3ccccc23)C(=O)NCc2ccccc2)c1 | > 20 | > 100 | 24.5 | 19 | –
13 | O=C(NO)c1cccc(S(=O)(=O)N[C@@H](Cc2c[nH]c3ccccc23)C(=O)Nc2ccc(F)cc2)c1 | > 20 | – | – | – | –
14 | O=C(NO)c1cccc(S(=O)(=O)N[C@@H](Cc2c[nH]c3ccccc23)C(=O)Nc2ccc(Cl)cc2)c1 | > 20 | – | – | – | –
15 | COc1ccc(Cn2ccc3ccc(C(=O)NO)cc32)cc1 | – | – | – | – | IC50 (Jurkat): 4.5 µM; IC50 (MOLT-4): 9.4 µM; IC50 [3]: 16.9 µM; IC50 (PC-3): 19.2 µM; IC50 (HeLa): > 25 µM; IC50 (K562): > 25 µM; IC50 (HEL): 10.8 µM
16 | O=C(NO)c1cccc(S(=O)(=O)Nc2ccccc2)c1 | > 20 | 14.5 | 1.5 | 0.05 | IC50 (Jurkat): 28.4 µM; IC50 (MOLT-4): 22.6 µM; IC50 (PC-3): > 50 µM; IC50 (HeLa): > 50 µM; IC50 (K562): > 50 µM; IC50 (HEL): > 50 µM; Ratio IC50 (Homo sapiens [4]): > 180; Ratio IC50 (Homo sapiens [5]): 30; inhibition (INH) [6]: Not Active; INH [7]: Not Active
17 | O=C(/C=C/c1cccc(S(=O)(=O)Nc2ccccc2)c1)NO [BELINOSTAT] | – | – | – | – | IC50 (Jurkat): 0.07 µM; IC50 (MOLT-4): 0.14 µM; IC50 [3]: 0.31 µM; IC50 (HeLa): 0.51 µM; IC50 (HEL): 0.1 µM
18 | COc1ccc(NC(=O)[C@@H](NS(=O)(=O)c2cccc(C(=O)NO)c2)c2ccccc2)cc1 | > 20 | – | – | – | –
19 | CN1CCc2c(c3ccccc3n2Cc2ccc(C(=O)NO)cc2)C1 [TUBASTATIN A] | – | – | – | – | inhibition (INH) [6]: Active
20 | CC(C)[C@H](NS(=O)(=O)c1cccc(C(=O)NO)c1)C(=O)Nc1ccccc1 | > 20 | > 100 | 40.5 | 33.9 | –
